From patent publication US20250206773A1, “FORMS AND COMPOSITIONS OF SODIUM CHENODEOXYCHOLATE” (Syntis Bio, Inc., priority 2022, published 2025)
Like-named read-outs stand apart in the source and are kept apart here.

Assays:
[1] = format: physicochemical
Protocol: HPLC analysis was carried out on an Agilent 1260 Infinity chromatograph, using a Hichrom C18 column 100×4.6 mm, 3.5 m, at 40° C. Method details were as follows: [table] Around 10 mg of NaCDC Form B was weighed into 1.6 mL HPLC vials. 3-5 mm PTFE-covered cylindrical magnetic stirring bars were added to the vials. […] The vials were visually inspected before each addition to check for the dissolution of the starting material, and the solvent addition was stopped when a complete dissolution was observed. The clear solutions were left to rest at RT. […] The experiments were held at each temperature for 1 h, and then they were visually inspected to see if dissolution occurred. At the end of the experimental time, the magnetic stirring bars were removed, and all slurries or solutions were dried at different temperatures depending on the boiling points of each solvent used (i.e., at 30° C., 20-21 mbar or 50° C., 21 mbar, for 21 hours; with the exception of experiments SASO7, SAS33, SAS34, SAS35, SAS36 and SAS45 which were dried at 50° C. for 43 hours). All the resulting solids were analyzed by XRPD. For several selected experiments, HPLC analysis was performed. The solids that gave new XRPD patterns were investigated by TGA/DSC. [table]

[2] = format: physicochemical; conditions: RT
Protocol: HPLC analysis was carried out on an Agilent 1260 Infinity chromatograph, using a Hichrom C18 column 100×4.6 mm, 3.5 m, at 40° C. Method details were as follows: [table] Photostability of NaCDC Form B was evaluated by exposing it in solid state and in MeOH solutions to UV 254 nm light for 48 hours in clear, amber, and aluminum foil wrapped vials. The solutions were prepared by weighing around 10 mg NaCDC Form B and mixing it with 500 μL MeOH. The solids and solutions were sampled after 48 hours and analyzed by HPLC, in order to assess degradation. In parallel, XRPD analysis was performed on the recovered solids.

[3] = Dynamic vapor sorption (DVS) hygroscopicity; format: physicochemical; conditions: 25° C.
Protocol: DVS measurements were performed with a SMS—DVS Intrinsic. The sample size was about 50 mg, accurately weighed. The measurement was performed at 25° C., the relative humidity (RH) range investigated was 40-90-0-90% RH with 10% RH steps. After each RH change, the mass of the sample was allowed to stabilize (waiting time 10 to 60 minutes, stabilization criterion ≤0.002 g for 10 minutes). The hygroscopicity of the sample was calculated as follows: [formula] • where: • W1: weight of sample at the start of the experiment (25° C. and 40% RH) • W2: weight of sample at 25° C. and 80% RH in the first sorption cycle High Pressure Liquid Chromatography (HPLC)

[4] = format: physicochemical; remark: listed apart in the source
Protocol: In-process stability of NaCDC Form B was evaluated under two conditions at reflux, as described in Table 1 below.

[5] = Polymorph screening: slurry (XRPD, HPLC of recovered solids); format: physicochemical; conditions: slurry 7 days
Protocol: Around 15 mg of NaCDC Form B was weighted into HPLC vials, and the appropriate volume of solvent was added at RT. Slurries were aged for 7 days under stirring (500 rpm), at multiple temperatures: 5° C., 25-30° C., 40° C., and 50° C. All solids were air-dried on filter paper and then analyzed by XRPD. Depending on the results obtained by XRPD and material availability, some experiments were analyzed by HTPLC and TG/DSC.

[6] = n-BuOH/water (6/1), azeotropic reflux for 24 h
[7] = n-BuOH/water (6/1), azeotropic reflux
[8] = SL70, Methyl ethyl ketone (MEK), 50° C.

C[C@H](CCC(=O)[O-])[C@H]1CC[C@H]2[C@@H]3[C@H](O)C[C@@H]4C[C@H](O)CC[C@]4(C)[C@H]3CC[C@]12C.[Na+] [Form B, sodium chenodeoxycholate]
HPLC (%) 212 nm ([1]; SAS01, Water (H2O), solid after evaporation A (30° C., 20-21 mbar, 21 hours)): 84.9%
HPLC (%) 212 nm ([1]; SAS03, Ethanol (EtOH), solid after evaporation A (30° C., 21 hours)): 71.5%
HPLC (%) 212 nm ([1]; SAS04, 2-Propanol (2-PrOH), solid after evaporation A (30° C., 21 hours)): 96.6%
HPLC (%) 212 nm ([1]; SAS05, 2-Methyl-1-propanol (Isobutanol), solid after evaporation A (30° C., 21 hours)): 96.5%
HPLC (%) 212 nm ([1]; SAS06, 2-Butanol, solid after evaporation A (30° C., 21 hours)): 97.5%
HPLC (%) 212 nm ([1]; SAS07, 2-Ethoxyethanol, solid after evaporation C (50° C., 43 hours)): 38.0%
HPLC (%) 212 nm ([1]; SAS08, 2,2,2-Trifluoroethanol (TFE), solid after evaporation A (30° C., 21 hours)): 91.3%
HPLC (%) 212 nm ([1]; SAS09, 3-Methyl-1-butanol (Isoamyl alcohol), solid after evaporation B (50° C., 21 hours)): 48.1%
HPLC (%) 212 nm ([1]; SAS20, n-Butyl acetate, solid after evaporation B (50° C., 21 hours)): 96.3%
HPLC (%) 212 nm ([1]; SAS24, Diisopropyl ether, solid after evaporation A (30° C., 21 hours)): 94.4%
HPLC (%) 212 nm ([1]; SAS33, Benzonitrile, solid after evaporation C (50° C., 43 hours)): 68.0%
HPLC (%) 212 nm ([1]; SAS34, N,N-Dimethyl-acetamide, solid after evaporation C (50° C., 43 hours)): 1.2%
HPLC (%) 212 nm ([1]; SAS35, N-Methyl-pyrrolidone, gel after evaporation C (50° C., 43 hours)): 1.5%
HPLC (%) 212 nm ([1]; SAS36, Dimethyl sulfoxide (DMSO), solid after evaporation C (50° C., 43 hours)): 32.4%
HPLC (%) 212 nm ([1]; SAS39, EtOH:MeCN (1:1 v/v), solid after evaporation A (30° C., 21 hours)): 80.1%
HPLC (%) 212 nm ([1]; SAS40, H2O:THF (1:1 v/v), solid after evaporation A (30° C., 21 hours)): 77.5%
HPLC (%) 212 nm ([1]; SAS41, H2O:EtOH (1:1 v/v), solid after evaporation A (30° C., 21 hours)): 90.7%
HPLC (%) 212 nm ([1]; SAS42, H2O:2-PrOH (1:1 v/v), solid after evaporation A (30° C., 21 hours)): 92.0%
HPLC (%) 212 nm ([1]; SAS43, H2O:MeCN (1:1 v/v), solid after evaporation A (30° C., 21 hours)): 91.1%
HPLC (%) 212 nm ([1]; SAS44, H2O:Acetone (1:1 v/v), solid after evaporation A (30° C., 21 hours)): 93.7%
HPLC (%) 212 nm ([1]; SAS45, H2O:DMSO (1:1 v/v), solid after evaporation C (50° C., 43 hours)): 30.2%
HPLC (%) 212 nm ([1]; SAS46, MeOH:EtOAc (1:1 v/v), solid after evaporation A (30° C., 21 hours)): 89.0%
HPLC (%) 212 nm ([1]; SAS47, MeOH:Acetone (1:1 v/v), solid after evaporation A (30° C., 21 hours)): 91.0%
HPLC (%) 212 nm ([1]; SAS48, EtOH:n-Heptane (1:1 v/v), solid after evaporation A (30° C., 21 hours)): 90.1%
HPLC purity of recovered solids (dropped from 99.2%) ([1]; experiments with 2-ethoxyethanol, 3-methyl-1-butanol, benzonitrile, DMAc, NMP, DMSO, H2O:DMSO (1:1 v/v)): 1.2-68.0%
HPLC (%) at 212 nm, after 48h ([2]; ST01: UV 254 nm, solid, clear vial): 94.4%
HPLC (%) at 212 nm, after 48h ([2]; ST02: UV 254 nm, solid, amber vial): 95.0%
HPLC (%) at 212 nm, after 48h ([2]; ST03: UV 254 nm, solid, control - dark): 95.4%
HPLC (%) at 212 nm, after 48h ([2]; ST04: UV 254 nm, MeOH solution, clear vial): 91.4%
HPLC (%) at 212 nm, after 48h ([2]; ST05: UV 254 nm, MeOH solution, amber vial): 91.0%
HPLC (%) at 212 nm, after 48h ([2]; ST06: UV 254 nm, MeOH solution, control - dark): 94.2%
hygroscopicity by DVS [3]: slightly hygroscopic
weight change in the first sorption cycle (DVS) ([3]; 40% RH to 80% RH): 0.8%
HPLC Purity % CDC (t24) ([4]; n-BuOH, reflux for 24 h): 99.9%
HPLC Purity % Cholic acid (t24) ([4]; n-BuOH, reflux for 24 h): 0.05%
HPLC Purity % CDC (t0) ([4]; n-BuOH, reflux): 99.9%
HPLC Purity % Cholic acid (t0) ([4]; n-BuOH, reflux): 0.05%
HPLC Purity % CDC (t24) [4, 6]: 99.92%
HPLC Purity % Cholic acid (t24) [4, 6]: 0.05%
HPLC Purity % CDC (t0) [4, 7]: 99.92%
HPLC Purity % Cholic acid (t0) [4, 7]: 0.05%
HPLC purity (%) at 212 nm ([5]; SL01, Ethanol (EtOH), 5° C.): 89.70%
XRPD ([5]; SL05, Methylcyclohexane, 5° C.): SM, P.O.
XRPD ([5]; SL06, n-Heptane, 5° C.): SM, l.c.
HPLC purity (%) at 212 nm ([5]; SL13, tert-Butyl methyl ether, 5° C.): 87.21%
XRPD ([5]; SL15, Tetrahydrofuran (THF), 5° C.): SM, l.c.
XRPD ([5]; SL19, Acetonitrile (MeCN), 5° C.): SM, l.c.
HPLC purity (%) at 212 nm ([5]; SL22, EtOH:MeCN (1:1 v/v), 5° C.): 91.93%
HPLC purity (%) at 212 nm ([5]; SL23, EtOH:n-Heptane (1:1 v/v), 5° C.): 93.64%
HPLC purity (%) at 212 nm ([5]; SL26, Ethanol (EtOH), 25-30° C.): 92.34%
HPLC purity (%) at 212 nm ([5]; SL27, 2-Propanol (2-PrOH), 25-30° C.): 88.33%
XRPD ([5]; SL28, 2-Methyl-1-propanol (Isobutanol), 25-30° C.): l.c., SM
XRPD ([5]; SL29, 2-Butanol, 25-30° C.): SM, l.c.
XRPD ([5]; SL31, Methylcyclohexane, 25-30° C., solvent almost evap./consumed on the 7th day): SM, l.c.
HPLC purity (%) at 212 nm ([5]; SL39, tert-Butyl methyl ether, 25-30° C.): 84.05%
XRPD ([5]; SL41, Tetrahydrofuran (THF), 25-30° C.): SM, l.c.
HPLC purity (%) at 212 nm ([5]; SL48, EtOH:MeCN (1:1 v/v), 25-30° C.): 83.87%
HPLC purity (%) at 212 nm ([5]; SL49, EtOH:n-Heptane (1:1 v/v), 25-30° C.): 93.06%
HPLC purity (%) at 212 nm ([5]; SL52, Ethanol (EtOH), 40° C.): 87.98%
HPLC purity (%) at 212 nm ([5]; SL56, 2-Propanol (2-PrOH), 50° C.): 84.92%
XRPD ([5]; SL60, n-Heptane, 50° C., solvent almost evap./consumed on 7th day): l.c., SM
HPLC purity (%) at 212 nm ([5]; SL68, Tetrahydrofuran (THF), 50° C.): 78.16%
HPLC purity (%) at 212 nm [5, 8]: 90.88%
XRPD [5, 8]: SM, h.c.
HPLC purity (%) at 212 nm ([5]; SL74, EtOH:MeCN (1:1 v/v), 50° C.): 78.36%
HPLC purity (%) at 212 nm ([5]; SL75, EtOH:n-Heptane (1:1 v/v), 50° C.): 85.10%
